ChEMBL document CHEMBL5579818, “Identification of 3-(9H-carbazol-9-yl)-2-(1,3-dioxoisoindolin-2-yl)propanoic acids as promising DNMT1 inhibitors” (Eur J Med Chem, 2024)

Assays:
[1] = molecular target: T1, DNA (cytosine-5)-methyltransferase 1 (Homo sapiens, UniProt P26358); assay: Binding affinity to human DNMT1 expressed in Escherichia coli assessed as response unit at 10 uM by SPR analysis
[2] = molecular target: T1, DNA (cytosine-5)-methyltransferase 1; assay: Binding affinity to human DNMT1 expressed in Escherichia coli assessed as equilibrium dissociation constant by SPR analysis
A2780 = assay: Antiproliferative activity against human A2780 cells incubated for 48 hrs by MTT assay; type: functional, cell-based; details: A2780, 48 h
HeLa = assay: Antiproliferative activity against human HeLa cells incubated for 48 hrs by MTT assay; type: functional, cell-based
K562 = assay: Antiproliferative activity against human K562 cells incubated for 48 hrs by MTT assay; type: functional, cell-based; details: K562, 48 h
SiHa = assay: Antiproliferative activity against human SiHa cells incubated for 48 hrs by MTT assay; type: functional, cell-based
[3] = Inhibition of recombinant human DNA methyltransferase using DNA as substrate incubated for 2 hrs by agarose gel assay
[4] = molecular target: T1, DNA (cytosine-5)-methyltransferase 1; assay: Binding affinity to human DNMT1 expressed in Escherichia coli by SPR analysis
[5] = molecular target: T1, DNA (cytosine-5)-methyltransferase 1; assay: Inhibition of DNMT1 (unknown origin) at 500 uM relative to control
[6] = molecular target: T1, DNA (cytosine-5)-methyltransferase 1; assay: Inhibition of DNMT1 (unknown origin) at 250 uM relative to control

T1 sequence (P26358 whole entry): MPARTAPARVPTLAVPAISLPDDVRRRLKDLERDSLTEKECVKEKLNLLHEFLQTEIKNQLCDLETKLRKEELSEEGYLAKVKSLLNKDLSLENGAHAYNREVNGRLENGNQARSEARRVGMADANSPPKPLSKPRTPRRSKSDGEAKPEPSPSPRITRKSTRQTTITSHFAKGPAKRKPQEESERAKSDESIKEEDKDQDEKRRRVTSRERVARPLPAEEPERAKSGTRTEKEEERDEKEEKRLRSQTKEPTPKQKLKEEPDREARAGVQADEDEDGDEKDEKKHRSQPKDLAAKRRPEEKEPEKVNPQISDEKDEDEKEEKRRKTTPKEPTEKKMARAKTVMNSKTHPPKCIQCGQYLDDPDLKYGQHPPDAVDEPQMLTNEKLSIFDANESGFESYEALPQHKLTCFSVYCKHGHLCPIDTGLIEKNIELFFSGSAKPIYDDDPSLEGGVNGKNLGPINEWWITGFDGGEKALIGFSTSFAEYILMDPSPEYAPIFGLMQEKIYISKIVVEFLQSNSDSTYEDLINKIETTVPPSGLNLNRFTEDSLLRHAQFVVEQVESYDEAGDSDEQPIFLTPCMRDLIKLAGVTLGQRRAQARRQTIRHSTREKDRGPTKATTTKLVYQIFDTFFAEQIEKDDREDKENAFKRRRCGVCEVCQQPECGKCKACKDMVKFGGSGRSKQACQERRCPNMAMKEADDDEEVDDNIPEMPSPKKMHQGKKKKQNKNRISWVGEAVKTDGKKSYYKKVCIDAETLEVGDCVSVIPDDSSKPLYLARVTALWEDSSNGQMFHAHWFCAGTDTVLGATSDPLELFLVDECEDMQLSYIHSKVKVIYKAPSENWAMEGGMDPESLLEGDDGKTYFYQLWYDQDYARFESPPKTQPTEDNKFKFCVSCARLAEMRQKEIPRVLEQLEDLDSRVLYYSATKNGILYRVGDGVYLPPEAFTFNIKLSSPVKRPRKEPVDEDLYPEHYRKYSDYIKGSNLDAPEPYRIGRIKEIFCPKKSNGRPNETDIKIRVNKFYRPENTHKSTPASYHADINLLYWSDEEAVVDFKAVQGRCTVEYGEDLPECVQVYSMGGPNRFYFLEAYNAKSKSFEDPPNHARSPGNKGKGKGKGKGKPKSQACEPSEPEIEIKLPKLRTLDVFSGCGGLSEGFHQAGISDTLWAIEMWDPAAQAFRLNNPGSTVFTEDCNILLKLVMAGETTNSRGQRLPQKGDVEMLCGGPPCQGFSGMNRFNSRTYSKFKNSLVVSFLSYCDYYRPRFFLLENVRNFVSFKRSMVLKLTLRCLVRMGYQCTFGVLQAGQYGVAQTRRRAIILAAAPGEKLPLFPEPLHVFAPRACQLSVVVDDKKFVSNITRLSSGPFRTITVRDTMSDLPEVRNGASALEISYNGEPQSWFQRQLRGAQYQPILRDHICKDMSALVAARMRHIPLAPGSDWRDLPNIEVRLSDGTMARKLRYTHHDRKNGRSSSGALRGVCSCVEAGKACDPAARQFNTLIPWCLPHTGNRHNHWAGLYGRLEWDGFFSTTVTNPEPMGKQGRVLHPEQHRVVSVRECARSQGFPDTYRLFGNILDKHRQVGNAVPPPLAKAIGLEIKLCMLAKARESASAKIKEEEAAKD

Activity [1]: 2.2 RU
Kd [2]: 94.6 µM
IC50 (A2780): > 200 µM
IC50 (HeLa): > 200 µM
IC50 (K562): > 200 µM
IC50 [3]: 0.115 µM
Kd [4]: 94.6 µM
inhibition [5]: < 5%
inhibition [6]: < 5%
SMILES: O=C(O)[C@H](Cc1c[nH]c2ccccc12)N1C(=O)c2ccccc2C1=O
IC50 (SiHa): > 200 µM
